The subject of one data set is DENV-1 replicon. Put plainly: Luciferase reporter replicon-based screening, DENV-1. The note with it: Dengue virus, DENV1, Huh-7, 48 h, read-out: EC50 DENV-1. The class given is cell-based, DENV-1 (strain WestPac). The protocol: (§1) Luciferase Reporter Replicon-Based Screening. Huh7 cells containing a luciferase reporter replicon of DENV-1 (strain WestPac), DENV-2 (New Guinea C strain, NGC), DENV-3 (strain D3MY05-34640) and DENV-4 (strain D4MY01-22713) were used in this study. The replicon cells containing the Renilla luciferase and neomycin-resistance genes were generated using a similar strategy as described previously.^55 Briefly, Huh7 DENV-1 to -4 replicon cells were seeded at a density of 10k per well in a 96-well microplate. After incubation at 37° C. with 5% CO2 overnight, the cells were treated with 2-fold serial dilutions of compounds. Experiments were performed in duplicates. After 48 h of incubation, luciferase activities were measured using the EnduRen live-cell substrate (Promega) by following the manufacturer’s instructions. The dose-dependent curve was plotted and EC50 values were calculated using four parameter logistic regression in GraphPad software Prism 8.0.
(In general: In a reporter assay the amount or activity of a reporter protein is the signal.)

Another data set deals with DENV-2 replicon. The data set can be described thus: Luciferase reporter replicon-based screening, DENV-2. It is filed as cell-based, DENV-2 (New Guinea C strain, NGC). The protocol: as §1
Another data set relates to DENV-3 replicon. The data set can be described thus: Luciferase reporter replicon-based screening, DENV-3. The class given is cell-based, DENV-3 (strain D3MY05-34640). The protocol: as §1
The subject of the next data set is DENV-4 replicon. The data set can be described thus: Luciferase reporter replicon-based screening, DENV-4. It is filed as cell-based, DENV-4 (strain D4MY01-22713). The note with it: Dengue virus, DENV4, Huh-7, 48 h, read-out: EC50 DENV-4. The protocol: as §1
A short description of data set [1]: Cytotoxicity assay (CellTiter-Glo). The class given is cell-based. As to conditions: human, Huh7 cells stably expressing DENV-2 replicon. The protocol:
Cytotoxicity Assay. Huh7 cells or Huh7 replicon cells were seeded in a 96-well plate. After incubation at 37° C. with 5% CO2 overnight, the cells were treated with 2-fold serial dilutions of compounds. Experiments were performed in duplicates. After 48 h of incubation, cell viability was measured by adding the CellTiter-Glo reagent (Promega) to each well. The cell viability in 0.45% DMSO-treatment groups was treated at 100%. The cell viability in compound-treated wells was normalized to that of DMSO-treated wells. CC50 values were calculated using four parameter logistic regression in GraphPad software Prism 8.0.
Background: In ATP-based viability assays light output follows the ATP content of the culture.

The mark [2] stands for this setting: Dengue virus, DENV2, Huh-7, 48 h, read-out: EC50 DENV-2, Huh7 cells stably expressing DENV-2 replicon, 48 h.
The mark [3] stands for this setting: Dengue virus, DENV3, Huh-7, 48 h, read-out: EC50 DENV-3, Huh7 cells stably expressing DENV-3 replicon, 48 h.
The mark [4] stands for this setting: read-out: EC50 DENV-2, Huh7 cells stably expressing DENV-2 replicon, 48 h.
Setting [5] is: read-out: EC50 DENV-3, Huh7 cells stably expressing DENV-3 replicon, 48 h.

SMILES strings stand for the structures. Read-outs that look alike come from different tables or passages of the source.

Usually EC50 stands for the concentration needed to bring the measured effect to its halfway point. For orientation: CC50 means the concentration at which the toxic effect on the cells reaches its halfway point. Low readings indicate greater toxicity to the cells, high ones lower toxicity to the cells. For `C#CCN1C(=O)[C@]2(CC(=O)Nc3c2nnn3[C@@H](C)c2ccc(Cl)cc2)c2cc(Cl)ccc21` [Compound 19, (R)-5ʹ-Chloro-3-((S)-1-(4-chlorophenyl)ethyl)-1ʹ-(prop-2-yn-1-yl)-4,6-dihydrospiro [[1,2,3]triazolo[4,5-b]pyridine-7,3ʹ-indoline]-2ʹ,5(3H)-dione], the EC50 in the data set with DENV-1 replicon is greater than 5000 nM; in the data set on DENV-2 replicon (setting [2]), 69 nM; in the data set with DENV-3 replicon (setting [3]), 3 nM; in the data set on DENV-4 replicon, greater than 5000 nM. The same compound yielded a CC50 at 48 h in data set [1] greater than 10000 nM.

Regarding `C[C@@H](c1ccc(Cl)cc1)n1nnc2c1NC(=O)C[C@]21C(=O)N(CCN2CCCC2)c2ccc(Cl)cc21` [Compound 58, (R)-5'-Chloro-3-((S)-1-(4-chlorophenyl)ethyl)-1'-(2-(pyrrolidin-1-yl)ethyl)-4,6-dihydrospiro[[1,2,3]triazolo[4,5-b]pyridine-7,3'-indoline]-2',5(3H)-dione], the EC50 was greater than 5000 nM in the data set on DENV-1 replicon, 38 nM in the data set with DENV-2 replicon (setting [2]), 6 nM in the data set on DENV-3 replicon (setting [3]) and greater than 5000 nM in the data set with DENV-4 replicon. In addition, the half-maximal cytotoxic concentration (CC50) at 48 h in data set [1] was greater than 10000 nM.

As for `C[C@@H](c1ccc(Cl)cc1)n1nnc2c1NC(=O)C[C@]21C(=O)N(Cc2ccncc2)c2ccc(Cl)cc21` [Compound 35, (R)-5'-Chloro-3-((S)-1-(4-chlorophenyl)ethyl)-1'-(pyridin-4-ylmethyl)-4,6-dihydrospiro[[1,2,3]triazolo[4,5-b]pyridine-7,3'-indoline]-2',5(3H)-dione], the EC50 in the data set with DENV-1 replicon is greater than 5000 nM; in the data set with DENV-2 replicon (setting [2]), 72 nM; with DENV-3 replicon (setting [3]), 25 nM; in the data set on DENV-4 replicon it was greater than 5000 nM. This compound displayed a CC50 at 48 h in data set [1] greater than 10000 nM.

Turning to `C[C@@H](c1ccc(Cl)cc1)n1nnc2c1NC(=O)C[C@]21C(=O)N(Cc2cccc(F)c2)c2ccc(Cl)cc21` [Compound 26, (R)-5'-Chloro-3-((S)-1-(4-chlorophenyl)ethyl)-1'-(3-fluorobenzyl)-4,6-dihydrospiro[[1,2,3]triazolo[4,5-b]pyridine-7,3'-indoline]-2',5(3H)-dione], the concentration giving a half-maximal response (EC50) in the data set on DENV-1 replicon is 10000 nM; in the data set with DENV-4 replicon, greater than 5000 nM. The same compound came in with a half-maximal cytotoxic concentration (CC50) at 48 h in data set [1] greater than 10000 nM.

As to `CCN1C(=O)[C@]2(CC(=O)Nc3c2nnn3[C@@H](C)c2ccc(Cl)cc2)c2cc(Cl)ccc21` [Compound 8, (R)-5'-Chloro-3-((S)-1-(4-chlorophenyl)ethyl)-1'-ethyl-4,6-dihydrospiro[[1,2,3]triazolo[4,5-b]pyridine-7,3'-indoline]-2',5(3H)-dione], the EC50 is 2500 nM in the data set with DENV-1 replicon, 24 nM with DENV-2 replicon (setting [2]), 6 nM in the data set with DENV-3 replicon (setting [3]) and greater than 5000 nM with DENV-4 replicon. The CC50 at 48 h in data set [1] was greater than 10000 nM.

Regarding `C[C@@H](c1ccc(Cl)cc1)n1nnc2c1NC(=O)C[C@]21C(=O)N(Cc2cccnc2)c2ccc(Cl)cc21` [Compound 34, (R)-5'-Chloro-3-((S)-1-(4-chlorophenyl)ethyl)-1'-(pyridin-3-ylmethyl)-4,6-dihydrospiro[[1,2,3]triazolo[4,5-b]pyridine-7,3'-indoline]-2',5(3H)-dione], the EC50 in the data set on DENV-1 replicon was 3200 nM; in the data set with DENV-2 replicon (setting [2]) it was 29 nM; in the data set with DENV-3 replicon (setting [3]) it was 21 nM; in the data set with DENV-4 replicon, greater than 5000 nM. For the same compound, the cytotoxic concentration (CC50) at 48 h in data set [1] is greater than 10000 nM.

For `C[C@@H](c1ccc(Cl)cc1)n1nnc2c1NC(=O)C[C@]21C(=O)N(CCC(C)(C)C)c2ccc(Cl)cc21` [Compound 16, (R)-5ʹ-Chloro-3-((S)-1-(4-chlorophenyl)ethyl)-1ʹ-(3,3-dimethylbutyl)-4,6-dihydrospiro[[1,2,3]triazolo[4,5-b]pyridine-7,3ʹ-indoline]-2ʹ,5(3H)-dione], the EC50 in the data set on DENV-1 replicon was 1100 nM; with DENV-2 replicon (setting [2]), 870 nM; in the data set on DENV-3 replicon (setting [3]), 82 nM; in the data set with DENV-4 replicon it was 3900 nM. In data set [1], this compound yielded a CC50 at 48 h greater than 10000 nM.

As for `C[C@@H](c1ccc(Cl)cc1)n1nnc2c1NC(=O)C[C@]21C(=O)N(CCO)c2ccc(Cl)cc21` [Compound 42, (R)-5'-Chloro-3-((S)-1-(4-chlorophenyl)ethyl)-1'-(2-hydroxyethyl)-4,6-dihydrospiro[[1,2,3]triazolo[4,5-b]pyridine-7,3'-indoline]-2',5(3H)-dione], the EC50 is greater than 5000 nM with DENV-1 replicon; 37 to 290 nM with DENV-2 replicon (setting [2]); 37 nM in the data set on DENV-2 replicon (setting [4]); 9 to 76 nM with DENV-3 replicon (setting [3]); 10 nM in the data set on DENV-3 replicon (setting [5]); greater than 5000 nM in the data set with DENV-4 replicon. In addition, the half-maximal cytotoxic concentration (CC50) at 48 h in data set [1] was greater than 10000 nM.

With `CCOC(CN1C(=O)[C@]2(CC(=O)Nc3c2nnn3[C@@H](C)c2ccc(Cl)cc2)c2cc(Cl)ccc21)OCC` [Compound 41, (R)-5'-Chloro-3-((S)-1-(4-chlorophenyl)ethyl)-1'-(2,2-diethoxyethyl)-4,6-dihydrospiro[[1,2,3]triazolo[4,5-b]pyridine-7,3ʹ-indoline]-2',5(3H)-dione], the EC50 in the data set with DENV-1 replicon and with DENV-4 replicon was greater than 5000 nM in each case. Moreover, in data set [1], the CC50 at 48 h is greater than 10000 nM.

Take `COCOCCN1C(=O)[C@]2(CC(=O)Nc3c2nnn3[C@@H](C)c2ccc(Cl)cc2)c2cc(Cl)ccc21` [Compound 38, (R)-5'-Chloro-3-((S)-1-(4-chlorophenyl)ethyl)-1'-(2-(methoxymethoxy)ethyl)-4,6-dihydrospiro[[1,2,3]triazolo[4,5-b]pyridine-7,3'-indoline]-2',5(3H)-dione]: the EC50 in the data set on DENV-1 replicon and in the data set with DENV-4 replicon was greater than 5000 nM throughout. Further, the CC50 at 48 h in data set [1] was greater than 10000 nM.

As to `C[C@@H](c1ccc(Cl)cc1)n1nnc2c1NC(=O)C[C@]21C(=O)N(CCCCCCCCBr)c2ccc(Cl)cc21` [Compound 50, (R)-1'-(8-bromooctyl)-5'-chloro-3-((S)-1-(4-chlorophenyl)ethyl)-4,6-dihydrospiro[[1,2,3]triazolo[4,5-b]pyridine-7,3'-indoline]-2',5(3H)-dione], the EC50 in the data set on DENV-2 replicon (setting [2]) was greater than 5000 nM. The compound also returned a CC50 at 48 h in data set [1] greater than 10000 nM.

With `C[C@@H](c1ccc(Cl)cc1)n1nnc2c1NC(=O)C[C@]21C(=O)N(Cc2ccc(F)cc2)c2ccc(Cl)cc21` [Compound 25, (R)-5'-Chloro-3-((S)-1-(4-chlorophenyl)ethyl)-1'-(4-fluorobenzyl)-4,6-dihydrospiro[[1,2,3]triazolo[4,5-b]pyridine-7,3'-indoline]-2',5(3H)-dione], the EC50 is 5000 nM with DENV-1 replicon, 140 to 290 nM in the data set with DENV-2 replicon (setting [2]), 160 nM with DENV-2 replicon (setting [4]) and 10000 nM in the data set with DENV-4 replicon. The CC50 at 48 h in data set [1] was greater than 10000 nM.

With `C[C@@H](c1ccc(Cl)cc1)n1nnc2c1NC(=O)C[C@]21C(=O)N(CCCCCl)c2ccc(Cl)cc21` [Compound 48, (R)-5'-Chloro-1'-(4-chlorobutyl)-3-((S)-1-(4-chlorophenyl)ethyl)-4,6-dihydrospiro[[1,2,3]triazolo[4,5-b]pyridine-7,3'-indoline]-2',5(3H)-dione], the EC50 in the data set on DENV-1 replicon is greater than 5000 nM; in the data set with DENV-2 replicon (setting [2]), 37 to 290 nM; in the data set with DENV-2 replicon (setting [4]), 73 nM; in the data set on DENV-4 replicon, greater than 5000 nM. Further, the CC50 at 48 h in data set [1] is greater than 10000 nM.

As for `C[C@@H](c1ccc(Cl)cc1)n1nnc2c1NC(=O)C[C@]21C(=O)N(CCCCCCBr)c2ccc(Cl)cc21` [Compound 49, (R)-1'-(6-Bromohexyl)-5'-chloro-3-((S)-1-(4-chlorophenyl)ethyl)-4,6-dihydrospiro[[1,2,3]triazolo[4,5-b]pyridine-7,3'-indoline]-2ʹ,5(3H)-dione], in the data set with DENV-2 replicon (setting [2]), the EC50 worked out at 3000 nM. This compound also gave a CC50 at 48 h in data set [1] greater than 10000 nM.

Take `COC(=O)CN1C(=O)[C@]2(CC(=O)Nc3c2nnn3[C@@H](C)c2ccc(Cl)cc2)c2cc(Cl)ccc21` [Compound 43, Methyl 2-((R)-5'-chloro-3-((S)-1-(4-chlorophenyl)ethyl)-2',5-dioxo-3,4,5,6-tetrahydrospiro[[1,2,3]triazolo[4,5-b]pyridine-7,3'-indolin]-1'-yl)acetate]: the EC50 in the data set on DENV-1 replicon is greater than 5000 nM; in the data set on DENV-3 replicon (setting [3]), 9 to 76 nM; in the data set with DENV-3 replicon (setting [5]), 11 nM; with DENV-4 replicon it was greater than 5000 nM. This compound also returned a CC50 at 48 h in data set [1] greater than 10000 nM.

As to `C[C@@H](c1ccc(Cl)cc1)n1nnc2c1NC(=O)C[C@]21C(=O)N(CC(=O)O)c2ccc(Cl)cc21` [Compound 45, 2-((R)-5'-Chloro-3-((S)-1-(4-chlorophenyl)ethyl)-2',5-dioxo-3,4,5,6-tetrahydrospiro[[1,2,3]triazolo[4,5-b]pyridine-7,3'-indolin]-1ʹ-yl)acetic acid], in the data set with DENV-2 replicon (setting [2]), the EC50 is 2400 nM. Besides, the half-maximal cytotoxic concentration (CC50) at 48 h in data set [1] was greater than 10000 nM.
